We go through one compound from patent publication US20250072441A1, “METHOD FOR PREPARING A COMESTIBLE NUTRIENT COMPOSITION AND USE THEREOF” (The Cultivated B. GmbH, priority 2022, published 2025).

Assay [1] relates to HepG2 cells. As to the kind of experiment: cells. To be noted: Homo sapiens, HepG2, 48 h.
Method: This cellular assay quantitates the amount of ATP that can be correlated to cell viability. HepG2 cells were supplied by ATCC (HB-8065), cultured in DMEM supplemented with 10% FBS and grown in a incubator set to 37° C. and 5% CO2. For both assays, cells were seeded at 5.000 cells/well in a 96-well plate using only the 32 central wells. Due to inherent clumping of HepG2 cells, amount of cells could not be properly measured and varied between assays. Various concentrations of Doxorubicin were added 18 hours after seeding to the cells at a volume of 0.2 μL of cells using IDOT. Cells were processed after 2 days of compound addition. The CellTiter-Glo 2.0 Cell Viability Assay (G9242, Promega) was used. The solution was thawed and stored at 4° C. as recommended. Cell medium was removed, then cells were washed 2× in 100 μL PBS. After the last wash, 50 μL of PBS followed by 50 μL of CellTiter-Glo 2.0 reagent were added. The 96-well plate was mixed for 2 min on an orbital shaker and incubated at 10 min at RT. Luminescence was recorded at a microplate reader, using a integration time of 1.000 ms. For both assays, data for dose-response experiments was fitted with the equation “Log(agonist) vs response−Variable slope (four parameters)” using Prism.
The subject of assay [2] is HepG2 cells. As to the kind of experiment: Neutral Red Assay, cell viability/cytotoxicity. To be noted: Homo sapiens, 48 h, 2 days after compound addition, n=3. It is filed as cell-based.
Method: It is a cellular assay that is based on a eurhodin dye that stains the lysosomes of viable cells. HepG2 cells were supplied by ATCC (HB-8065), cultured in DMEM supplemented with 10% FBS and grown in a incubator set to 37° C. and 5% CO2. For both assays, cells were seeded at 5.000 cells/well in a 96-well plate using only the 32 central wells. Due to inherent clumping of HepG2 cells, amount of cells could not be properly measured and varied between assays. […] Cells were processed after 2 days of compound addition. The Neutral Red Assay Kit—Cell Viability/Cytotoxicity (ab234039, Abcam) was used. All solutions of the kit were aliquoted and stored at −20° C. as recommended. […] Cell medium was removed and cells washed with 200 μL of 1× washing solution. After addition of 150 μL of 1× Neutral Red Staining Solution, cells were stained for 2 hours in the incubator. Cells were washed with 250 μL of 1× washing solution, and then air dried for approx. 10 min until no liquid was visible on the plate. Addition of 150 μL 1× solubilization solution was followed by shaking the plate for 20 min at 500 rpm and RT. The 96-well plate was then read at a microplate reader at an OD of 540 nm.
For assay [3], the system named is HepG2 cells. To be noted: read-out: IC50, expected literature value reported in the manual for the Neutral Red Assay; cited from earlier work.

pIC50: −log10 of the molar value. Read-outs that look alike come from different tables or passages of the source.

Regarding `COc1cccc2c1C(=O)c1c(O)c3c(c(O)c1C2=O)C[C@@](O)(C(=O)CO)C[C@@H]3O[C@H]1C[C@H](N)[C@H](O)[C@H](C)O1` [Doxorubicin], the pIC50 in assay [1] was 6.94; in assay [2] it was 7.10; in assay [3], 6.16.
